PubChem BioAssay AID248 (DTP/NCI, 2004)
Where “and” joins values, the source holds several entries; their conditions need not be identical. Equal values may be shown once. Toxic doses and inconclusive results are not listed. No stated cut-off is given here; in the data, active means T/C of 150% or more; inactive means T/C below 125%.

System: L1210 leukemia ip in BDF1 mice, survival T/C
Test: NCI In Vivo Anticancer Drug Screen. Data for tumor model L1210 Leukemia (intraperitoneal) in B6D2F1 (BDF1) mice
Conditions: endpoint: mean survival time, higher = longer survival
Procedure, shortened: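 Tumor cells were implanted, animals were treated, and survival was followed. The result divides the treated measurement by the vehicle-control measurement.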

[1] = dose: 50.0 mg/kg/injection, schedule: Q04DX002 (ip), vehicle: saline
[2] = dose: 6.25 mg/kg/injection, schedule: Q04DX003 (ip), vehicle: saline
[3] = dose: 12.5 mg/kg/injection, schedule: Q04DX003 (ip), vehicle: saline
[4] = dose: 25.0 mg/kg/injection, schedule: Q04DX003 (ip), vehicle: saline
[5] = dose: 100.0 mg/kg/injection, schedule: Q04DX003 (ip), vehicle: Klucel (hydroxypropylcellulose) (HPC)
[6] = dose: 75.0 mg/kg/injection, schedule: Q01DX001 (ip), vehicle: saline
[7] = dose: 150.0 mg/kg/injection, schedule: Q01DX001 (ip), vehicle: saline
[8] = dose: 100.0 mg/kg/injection, schedule: Q01DX009 (ip), vehicle: Klucel (hydroxypropylcellulose) (HPC)
[9] = dose: 200.0 mg/kg/injection, schedule: Q01DX009 (ip), vehicle: Klucel (hydroxypropylcellulose) (HPC)
[10] = dose: 400.0 mg/kg/injection, schedule: Q01DX009 (ip), vehicle: Klucel (hydroxypropylcellulose) (HPC)

Measured: T/C

CC(=O)OCCC/C(=C\c1ccc(Br)cc1)[N+](=O)[O-]
inactive: dose: 100.0 mg/kg/injection, schedule: Q01DX001 (ip), vehicle: carboxymethylcellulose (CMC) 97 % of control | dose: 200.0 mg/kg/injection, schedule: Q01DX001 (ip), vehicle: carboxymethylcellulose (CMC) 97 % of control

Cc1nc(N)[nH]c(=O)c1CCCOc1ccc([N+](=O)[O-])cc1
inactive: dose: 12.5 mg/kg/injection, schedule: Q04DX002 (ip), vehicle: saline 106 % of control | dose: 25.0 mg/kg/injection, schedule: Q04DX002 (ip), vehicle: saline 102 % of control | [1] 95 % of control

NC(CSS(=O)(=O)O)=NCCCC1CCCCC1
inactive: dose: 6.25 mg/kg/injection, schedule: Q04DX002 (ip), vehicle: saline with Tween-80 97 % of control | dose: 12.5 mg/kg/injection, schedule: Q04DX002 (ip), vehicle: saline with Tween-80 101 % of control

Nc1ccc(N)c(N)n1
inactive: [2] 95 % of control | [3] 97 % of control | dose: 15.0 mg/kg/injection, schedule: Q01DX001 (ip), vehicle: saline 107 % of control | [4] 97 % of control | dose: 30.0 mg/kg/injection, schedule: Q01DX001 (ip), vehicle: saline 107 % of control | dose: 60.0 mg/kg/injection, schedule: Q01DX001 (ip), vehicle: saline 97 % of control

O=C(OCCl)c1ccc(Cl)c(Cl)c1
inactive: dose: 25.0 mg/kg/injection, schedule: Q04DX003 (ip), vehicle: Klucel (hydroxypropylcellulose) (HPC) 95 % of control | dose: 50.0 mg/kg/injection, schedule: Q04DX003 (ip), vehicle: Klucel (hydroxypropylcellulose) (HPC) 98 % of control | [5] 101 % of control

N=c1ccn(CC(O)COc2ccccc2)cc1 (centres undefined)
inactive: dose: 100.0 mg/kg/injection, schedule: Q01DX001 (ip), vehicle: saline 102 % of control

COc1cccc(N=C(N)N=C(N)N)c1
inactive: [6] 101 % of control | [7] 101 % of control | dose: 300.0 mg/kg/injection, schedule: Q01DX001 (ip), vehicle: saline 107 % of control

O=C(C[n+]1ccccc1Br)c1ccc2ccccc2c1
inactive: dose: 9.38 mg/kg/injection, schedule: Q01DX001 (ip), vehicle: other 104 % of control | dose: 18.75 mg/kg/injection, schedule: Q01DX001 (ip), vehicle: other 103 % of control | dose: 37.5 mg/kg/injection, schedule: Q01DX001 (ip), vehicle: other 103 % of control

CCCCCCC(=O)N(CC)C(=NCC)c1ccc(NC(=O)c2ccc(C(=O)Nc3ccc(C(=NCC)N(CC)C(=O)CCCCCC)cc3)cc2)cc1
inactive: dose: 3.75 mg/kg/injection, schedule: Q01DX015 (ip), vehicle: methylcellulose (MC) 98 % of control | dose: 7.5 mg/kg/injection, schedule: Q01DX015 (ip), vehicle: methylcellulose (MC) 101 % of control | dose: 15.0 mg/kg/injection, schedule: Q01DX015 (ip), vehicle: methylcellulose (MC) 98 % of control | dose: 30.0 mg/kg/injection, schedule: Q01DX015 (ip), vehicle: methylcellulose (MC) 90 % of control | dose: 62.0 mg/kg/injection, schedule: Q01DX015 (ip), vehicle: methylcellulose (MC) 93 % of control | dose: 125.0 mg/kg/injection, schedule: Q01DX015 (ip), vehicle: methylcellulose (MC) 90 % of control | dose: 250.0 mg/kg/injection, schedule: Q01DX015 (ip), vehicle: methylcellulose (MC) 87 % of control | dose: 500.0 mg/kg/injection, schedule: Q01DX015 (ip), vehicle: methylcellulose (MC) 86 % of control

CCC(=O)OCCOc1ccc(C(C)(C)C)cc1
inactive: [1] 98 % of control | dose: 100.0 mg/kg/injection, schedule: Q01DX009 (ip), vehicle: saline 98 % of control | dose: 100.0 mg/kg/injection, schedule: Q04DX002 (ip), vehicle: saline 94 % of control | dose: 200.0 mg/kg/injection, schedule: Q01DX009 (ip), vehicle: saline 103 % of control | dose: 200.0 mg/kg/injection, schedule: Q04DX002 (ip), vehicle: saline 91 % of control

O=C(NNC(=O)NC1OCC(O)C(O)C1O)Nc1ccccc1 (centres undefined)
inactive: dose: 100.0 mg/kg/injection, schedule: Q01DX009 (ip), vehicle: saline with Tween-80 97 % of control | dose: 200.0 mg/kg/injection, schedule: Q01DX009 (ip), vehicle: saline with Tween-80 100 % of control | dose: 400.0 mg/kg/injection, schedule: Q01DX009 (ip), vehicle: saline with Tween-80 97 % of control

N#CCCSCCSCCC#N
inactive: [8] 95 % of control | [9] 97 % of control | [10] 101 % of control

Cc1cccc(NC(=O)C2CCC(CC3CCCCC3)CC2)c1 (centres undefined)
inactive: dose: 50.0 mg/kg/injection, schedule: Q01DX001 (ip), vehicle: Klucel (hydroxypropylcellulose) (HPC) 89 % of control | dose: 100.0 mg/kg/injection, schedule: Q01DX001 (ip), vehicle: Klucel (hydroxypropylcellulose) (HPC) 89 % of control | dose: 200.0 mg/kg/injection, schedule: Q01DX001 (ip), vehicle: Klucel (hydroxypropylcellulose) (HPC) 87 % of control

CC1(C)C(=O)NC(=O)C1(C)C
inactive: dose: 1.56 mg/kg/injection, schedule: Q03HX024 (ip), vehicle: saline 106 % of control | dose: 3.12 mg/kg/injection, schedule: Q03HX024 (ip), vehicle: saline 100 % of control | dose: 3.12 mg/kg/injection, schedule: Q04DX003 (ip), vehicle: saline 100 % of control | dose: 4.12 mg/kg/injection, schedule: Q01DX009 (ip), vehicle: saline 100 % of control | dose: 6.25 mg/kg/injection, schedule: Q01DX009 (ip), vehicle: saline 106 % of control | dose: 6.25 mg/kg/injection, schedule: Q03HX024 (ip), vehicle: saline 101 % of control | [2] 104 % of control | dose: 8.25 mg/kg/injection, schedule: Q01DX009 (ip), vehicle: saline 100 % of control | dose: 12.5 mg/kg/injection, schedule: Q01DX009 (ip), vehicle: saline 102 % of control | dose: 12.5 mg/kg/injection, schedule: Q03HX024 (ip), vehicle: saline 100 % of control | [3] 104 % of control and 108 % of control | dose: 16.5 mg/kg/injection, schedule: Q01DX009 (ip), vehicle: saline 92 % of control | dose: 18.75 mg/kg/injection, schedule: Q01DX001 (ip), vehicle: saline 105 % of control | dose: 25.0 mg/kg/injection, schedule: Q01DX009 (ip), vehicle: saline 106 % of control | [4] 102 % of control and 105 % of control | dose: 33.0 mg/kg/injection, schedule: Q01DX009 (ip), vehicle: saline 105 % of control | dose: 37.5 mg/kg/injection, schedule: Q01DX001 (ip), vehicle: saline 108 % of control | dose: 50.0 mg/kg/injection, schedule: Q01DX009 (ip), vehicle: saline 102 % of control | dose: 50.0 mg/kg/injection, schedule: Q04DX003 (ip), vehicle: saline 100 % of control and 102 % of control | dose: 66.0 mg/kg/injection, schedule: Q01DX009 (ip), vehicle: saline 90 % of control | [6] 108 % of control | dose: 100.0 mg/kg/injection, schedule: Q04DX003 (ip), vehicle: saline 94 % of control | [7] 103 % of control

COC(=O)c1ccccc1NC(=S)NC(=O)c1ccc(OC)cc1
inactive: [8] 93 % of control | [5] 91 % of control | [9] 98 % of control | dose: 200.0 mg/kg/injection, schedule: Q04DX003 (ip), vehicle: Klucel (hydroxypropylcellulose) (HPC) 104 % of control | [10] 95 % of control | dose: 400.0 mg/kg/injection, schedule: Q04DX003 (ip), vehicle: Klucel (hydroxypropylcellulose) (HPC) 96 % of control

CC(=O)NCc1ccc(N)cc1
inactive: dose: 12.5 mg/kg/injection, schedule: Q01DX009 (ip), vehicle: water 114 % of control | dose: 25.0 mg/kg/injection, schedule: Q01DX009 (ip), vehicle: water 112 % of control | dose: 50.0 mg/kg/injection, schedule: Q01DX009 (ip), vehicle: water 114 % of control | dose: 100.0 mg/kg/injection, schedule: Q01DX009 (ip), vehicle: water 120 % of control | dose: 200.0 mg/kg/injection, schedule: Q01DX009 (ip), vehicle: water 116 % of control
